For assay [1], the system named is NCI-H1703. In words: Induction of apoptosis in human NCI-H1703 cells assessed as viable cells at 5 uM measured after 72 hrs by PI/Annexin-V staining based flow cytometry analysis (reference value: 92.7% ). Conditions: read-out: Activity. Format: functional. For orientation: In flow cytometry, cells or beads pass a laser one at a time.
In assay [2] the test system is NCI-H1703. In words: Induction of apoptosis in human NCI-H1703 cells assessed as necrotic cells at […] measured after 72 hrs by PI/Annexin-V staining based flow cytometry analysis (reference value: 2.80% ). In kind it is functional. Conditions: dose 7.5 µM.
A short description of assay [3]: Downregulation of c-Myc level in human NCI-H1703 cells at […] by measuring fold change by Western blot analysis relative to control. Format: functional. Conditions: dose 7.5 µM.
Assay [4] has as its system NCI-H520. In words: Induction of apoptosis in human NCI-H520 cells assessed as decrease in NSD3 protein expression at 5 uM by measuring fold change by Western blot analysis relative to control. Format: functional. Background: In western blotting, separated proteins are transferred to a membrane and probed.
Assay [5] deals with NCI-H1703. In words: Antiproliferative activity against human NCI-H1703 cells incubated for 6 days by CCK-8 method. Conditions: NCI-H1703, 144 h. Format: functional, cell-based. On the technique in general: Formazan colour is commonly taken as a measure of viable cells.
In assay [6] the test system is NCI-H1703. The experiment in a line: Induction of apoptosis in human NCI-H1703 cells assessed as late apoptotic cells at 3 uM measured after 72 hrs by PI/Annexin-V staining based flow cytometry analysis (reference value: 3.00% ). Format: functional.
The target in assay [7] is T1, Histone-lysine N-methyltransferase NSD3 (Homo sapiens) (UniProt Q9BZ95).
T1 sequence (whole entry): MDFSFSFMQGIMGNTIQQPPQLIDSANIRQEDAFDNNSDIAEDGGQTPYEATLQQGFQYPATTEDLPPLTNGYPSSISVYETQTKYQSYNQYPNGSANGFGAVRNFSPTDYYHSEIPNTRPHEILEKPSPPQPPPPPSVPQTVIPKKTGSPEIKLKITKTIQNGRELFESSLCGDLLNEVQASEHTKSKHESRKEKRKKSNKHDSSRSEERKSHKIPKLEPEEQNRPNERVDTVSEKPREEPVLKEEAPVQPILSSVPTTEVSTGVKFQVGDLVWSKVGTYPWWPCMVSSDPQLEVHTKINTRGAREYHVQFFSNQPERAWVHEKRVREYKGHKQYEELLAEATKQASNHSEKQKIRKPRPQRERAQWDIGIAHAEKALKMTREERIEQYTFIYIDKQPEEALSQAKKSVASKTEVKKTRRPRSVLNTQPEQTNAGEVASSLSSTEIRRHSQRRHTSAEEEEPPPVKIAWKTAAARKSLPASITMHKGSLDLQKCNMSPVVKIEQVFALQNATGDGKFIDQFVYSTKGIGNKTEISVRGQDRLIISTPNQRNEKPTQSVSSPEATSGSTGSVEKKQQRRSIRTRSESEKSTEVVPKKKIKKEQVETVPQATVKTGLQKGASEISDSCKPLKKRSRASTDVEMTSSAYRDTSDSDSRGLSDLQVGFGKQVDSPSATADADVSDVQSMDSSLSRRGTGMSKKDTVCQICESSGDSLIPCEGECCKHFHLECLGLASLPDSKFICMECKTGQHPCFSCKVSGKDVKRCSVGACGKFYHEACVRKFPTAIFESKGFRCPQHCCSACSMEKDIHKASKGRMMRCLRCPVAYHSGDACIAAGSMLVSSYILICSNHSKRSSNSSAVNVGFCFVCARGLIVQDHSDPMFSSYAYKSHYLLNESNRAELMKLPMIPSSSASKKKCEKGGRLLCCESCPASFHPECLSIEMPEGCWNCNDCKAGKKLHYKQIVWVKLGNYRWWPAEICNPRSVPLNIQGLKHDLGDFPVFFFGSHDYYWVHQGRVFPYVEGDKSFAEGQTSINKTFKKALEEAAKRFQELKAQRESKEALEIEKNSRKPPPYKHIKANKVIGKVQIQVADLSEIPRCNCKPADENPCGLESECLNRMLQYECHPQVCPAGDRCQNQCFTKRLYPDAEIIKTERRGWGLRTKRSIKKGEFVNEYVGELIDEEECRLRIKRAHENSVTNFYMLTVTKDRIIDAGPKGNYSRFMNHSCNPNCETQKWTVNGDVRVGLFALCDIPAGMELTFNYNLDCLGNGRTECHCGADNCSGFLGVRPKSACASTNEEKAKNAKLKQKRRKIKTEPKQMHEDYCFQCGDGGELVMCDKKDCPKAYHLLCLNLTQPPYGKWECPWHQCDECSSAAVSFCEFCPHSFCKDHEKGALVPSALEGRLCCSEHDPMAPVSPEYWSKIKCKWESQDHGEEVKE
In words: Induction of NSD3 degradation in human NCI-H1703 cells at 0.001 to 5 uM by Western blot analysis. In kind it is cell-based. Conditions: dose 0.001-5 µM, time 12-72 hrs, TDE = time-dependent effect.

Assay [8] concerns NCI-H1703. The experiment in a line: Induction of apoptosis in human NCI-H1703 cells assessed as decrease in MCL-1 protein expression at […] by measuring fold change by Western blot analysis relative to control. In kind it is functional. Conditions: dose 7.5 µM.
Assay [9] deals with NCI-H1703. The experiment in a line: Induction of apoptosis in human NCI-H1703 cells assessed as decrease in Bcl-XL protein expression at […] by measuring fold change by Western blot analysis relative to control. Format: functional. Conditions: dose 7.5 µM.
Assay [10] concerns NCI-H520. In words: Downregulation of CyclinD1 level in human NCI-H520 cells at 3 to […] by Western blot analysis. Conditions: dose 3-7.5 µM. Format: functional, cell-based.
Assay [11] deals with NCI-H1703. In words: Downregulation of ALDH1A1 in human NCI-H1703 cells at […] measured after 72 hrs by RNA sequencing assay. Conditions: dose 7.5 µM. Format: functional, cell-based.
For assay [12], the system named is NCI-H1703. In words: Induction of apoptosis in human NCI-H1703 cells assessed as necrotic cells at 3 uM measured after 72 hrs by PI/Annexin-V staining based flow cytometry analysis (reference value: 2.80% ). Format: functional.
A short description of assay [13]: Downregulation of Cyclin D1 level in human NCI-H520 cells at 5 uM by measuring fold change by Western blot analysis relative to control. Format: functional.
The test system of assay [14] is NCI-H520. The experiment in a line: Induction of apoptosis in human NCI-H520 cells assessed as decrease in Bcl-XL protein expression at 5 to 10 uM by Western blot analysis. Conditions: dose 5-10 µM. In kind it is functional, cell-based.
Assay [15] concerns NCI-H1703. In words: Induction of apoptosis in human NCI-H1703 cells assessed as viable cells at 10 uM measured after 72 hrs by PI/Annexin-V staining based flow cytometry analysis (reference value: 92.7% ). Conditions: read-out: Activity. Format: functional.

The values below come from ChEMBL document CHEMBL5338706, “Discovery of a potent and selective proteolysis targeting chimera (PROTAC) degrader of NSD3 histone methyltransferase” (Eur J Med Chem, 2022).

Active and inactive are the calls of the source. The rule behind the calls is not given here.

As a reminder, the IC50 is the concentration that gives 50% inhibition. High values mean lower potency, low ones higher potency. As to `Cc1cc(CNCCCCCCCCCCC(=O)N[C@H](C(=O)N2C[C@H](O)C[C@H]2C(=O)N[C@@H](C)c2ccc(-c3scnc3C)cc2)C(C)(C)C)cc(C)c1-c1ncn(C)c1-c1ccnc2cc(F)ccc12`, in the assay with NCI-H1703 [1], the viability at 5 µM was determined as 81.2%. Further, the Activity with NCI-H1703 [2] was 2.99%; with NCI-H1703 [6], 3%; in [7] it was “Tde”; with NCI-H1703 [12] it was 1.34%. For the same molecule, the “fold change (FC)” value in [3] worked out at 0.72; in the assay on NCI-H520 [4] it was 0.83; in the assay with NCI-H1703 [8], 0.54; in the assay on NCI-H1703 [9], 0.67; in assay [13], 0.8. The IC50 with NCI-H1703 [5] is 2740 nM. For the same molecule, the outcome in the assay with NCI-H520 [10], with NCI-H1703 [11] and in the assay on NCI-H520 [14] was Active. In addition, the viability at 10 µM in the assay on NCI-H1703 [15] was 7.76%.
